Source: ChEMBL document CHEMBL4673175, “An epigrammatic status of the azole-based antimalarial drugs” (RSC Med Chem, 2020)

Assays:
Plasmodium falciparum [1] = assay: Antimalarial activity against chloroquine-resistant ring-stage Plasmodium falciparum W2 infected in human erythrocytes by HRP2 assay; format: functional, organism-based
Plasmodium falciparum [2] = assay: Antimalarial activity against chloroquine resistant Plasmodium falciparum incubated for 24 to 48 hrs by Giemsa staining based assay; format: functional, organism-based
Plasmodium falciparum [3] = assay: Antimalarial activity against chloroquine sensitive Plasmodium falciparum incubated for 24 to 48 hrs by Giemsa staining based assay; format: functional, organism-based
Plasmodium falciparum [4] = assay: Antiplasmodial activity against chloroquine-resistant/mefloquine resistant early ring stage Plasmodium falciparum Dd2 by whole-cell SYBR Green I based assay; format: functional, organism-based
Plasmodium falciparum [5] = assay: Antiplasmodial activity against chloroquine-sensitive/mefloquine resistant early ring stage Plasmodium falciparum 3D7 by whole-cell SYBR Green I based assay; format: functional, organism-based
Plasmodium falciparum [6] = assay: Antiplasmodial activity against Plasmodium falciparum IPC5202 by whole-cell SYBR Green I based assay; format: functional, organism-based
Plasmodium falciparum [7] = assay: Antiplasmodial activity against Plasmodium falciparum IPC4912 by whole-cell SYBR Green I based assay; format: functional, organism-based
[8] = test system: Falcipain-2 (Plasmodium falciparum); assay: Inhibition of Plasmodium falciparum falcipain-2 in enzyme assay
Plasmodium falciparum [9] = assay: Antiplasmodial activity against chloroquine sensitive Plasmodium falciparum D10; format: functional, organism-based
Plasmodium falciparum [10] = assay: Antiplasmodial activity against chloroquine resistant Plasmodium falciparum Dd2; format: functional, organism-based
Plasmodium falciparum [11] = assay: Antimalarial activity against chloroquine resistant Plasmodium falciparum RKL9 assessed as reduction in schizont maturation incubated for 24 hrs by Giemsa staining based assay; format: functional, organism-based; conditions: RKL9, 24 h
Plasmodium falciparum [12] = assay: Antimalarial activity against Plasmodium falciparum assessed as reduction in [3H]-hypoxanthine incorporation into DNA incubated for 36 hrs by beta counter method; format: functional, organism-based
Plasmodium falciparum [13] = assay: Antimalarial activity against chloroquine resistant Plasmodium falciparum; format: functional, organism-based
Plasmodium falciparum [14] = assay: Antimalarial activity against chloroquine sensitive Plasmodium falciparum; format: functional, organism-based
Plasmodium falciparum [15] = assay: Antimalarial activity against chloroquine sensitive Plasmodium falciparum 3D7 assessed as reduction in schizont maturation incubated for 24 hrs by Giemsa staining based assay; format: functional, organism-based; conditions: 3D7, 24 h
Plasmodium falciparum [16] = assay: Antimalarial activity against chloroquine sensitive Plasmodium falciparum 3D7 incubated for 72 hrs by JSB1/JSB2 staining based assay; format: functional, organism-based; conditions: 3D7, 72 h
Plasmodium berghei [17] = assay: Antimalarial activity against Plasmodium berghei ANKA infected in Swiss albino mouse assessed as parasitemia suppression at 50 micromol/kg, po administered for 4 days and measured at 24 hrs post-last dose by Giemsa staining based microscopic method relative to control; format: functional; conditions: dose 50 µmol/kg; time 4 day
Plasmodium falciparum [18] = assay: Antiplasmodial activity against ring stage Plasmodium falciparum incubated for 72 hrs by SYBR Green I based assay; format: functional, organism-based
Hemozoin = assay: Inhibition of beta-hematin formation at 5 to 100 mM incubated for 48 hrs; conditions: dose 5-100 mM
Plasmodium berghei [19] = assay: Antimalarial activity against Plasmodium berghei ANKA infected in Balb-C mouse assessed as mouse survival time at 10 mg/kg, ip administered once per day for 4 consecutive days (reference value: 8.20 +/- 0.20 days); format: functional; conditions: time 4 day
Plasmodium berghei [20] = assay: Antimalarial activity against Plasmodium berghei ANKA infected in Balb-C mouse assessed as parasitemia at 10 mg/kg, ip administered once daily for 4 consecutive days by Giemsa staining based assay relative to control; format: functional; conditions: time 4 day
[21] = target: T1, Enoyl-acyl-carrier protein reductase (Plasmodium falciparum, UniProt Q965D5); assay: Inhibition of Plasmodium falciparum enoyl-ACP reductase using crotonoyl-CoA as substrate by UV-Vis spectrophotometric method
T1 sequence (Q965D5 whole entry): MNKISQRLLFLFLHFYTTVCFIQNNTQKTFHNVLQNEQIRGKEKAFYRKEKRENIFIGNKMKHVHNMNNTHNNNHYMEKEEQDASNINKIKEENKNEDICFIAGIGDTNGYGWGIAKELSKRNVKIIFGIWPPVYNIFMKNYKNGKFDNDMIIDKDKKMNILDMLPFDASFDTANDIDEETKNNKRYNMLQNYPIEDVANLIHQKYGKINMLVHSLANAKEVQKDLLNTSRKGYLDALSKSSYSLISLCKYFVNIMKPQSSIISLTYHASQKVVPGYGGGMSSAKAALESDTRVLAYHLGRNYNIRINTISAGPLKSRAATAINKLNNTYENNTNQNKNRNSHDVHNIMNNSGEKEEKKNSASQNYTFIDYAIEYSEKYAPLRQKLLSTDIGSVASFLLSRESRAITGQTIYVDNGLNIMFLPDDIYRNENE

Molecule `Clc1ccc2c(-n3cc(OC4CCCCO4)nn3)ccnc2c1` (stereo unspecified) has an IC50 (Plasmodium falciparum [1]) of 1.4 µM.
`CC(C)c1nc(CC(N)C(=O)O)c[nH]1` (stereo unspecified) was tested, and the IC50 (Plasmodium falciparum [2]) was 10 µM and the IC50 (Plasmodium falciparum [3]) was 10 µM.
For `Clc1ccc2c(-n3cc(C4CC4)nn3)ccnc2c1`, the IC50 (Plasmodium falciparum [1]) was 1.4 µM.
`c1ccc(-n2nnnc2OCC2CCC3(CC2)OOC2(O3)C3CC4CC(C3)CC2C4)cc1` (stereo unspecified) showed an IC50 (Plasmodium falciparum [4]) of 0.0003 µM, an IC50 (Plasmodium falciparum [5]) of 0.0003 µM and an IC50 (Plasmodium falciparum [6]) of 0.0003 µM. For the same molecule, the IC50 (Plasmodium falciparum [7]) was 0.0003 µM.
`Cn1nnnc1NCC1CCC2(CC1)OOC1(O2)C2CC3CC(C2)CC1C3` (stereo unspecified) gave an IC50 (Plasmodium falciparum [4]) of 0.0003 µM, an IC50 (Plasmodium falciparum [5]) of 0.0003 µM and an IC50 (Plasmodium falciparum [6]) of 0.0003 µM. The IC50 (Plasmodium falciparum [7]) was 0.0003 µM.
`COc1cc(/C=C(/C#N)c2nc3ccccc3[nH]2)cc(OC)c1` was tested, and the IC50 [8] was 0.69 µM.
`COc1ccc(CN2CC2Cn2cc(-c3ccccc3)nn2)cc1` (stereo unspecified) showed an IC50 (Plasmodium falciparum [9]) of no more than 25 µM.
Work on `CNCC(Cn1cc(-c2ccccc2)nn1)NCc1ccccc1Cl` (stereo unspecified) yielded an IC50 (Plasmodium falciparum [9]) of no more than 25 µM and an IC50 (Plasmodium falciparum [10]) of no more than 25 µM.
With `Cc1ccc(-n2cc(/C=N/Nc3ccncc3)c(-c3ccccc3)n2)cc1` the IC50 (Plasmodium falciparum [11]) was 0.033 µM.
`COc1cccc(Nc2n[nH]c(N)c2C#N)c1` showed an IC50 (Plasmodium falciparum [12]) of 0.14 µM.
`NCCc1cncn1Cc1ccccc1` gave an IC50 (Plasmodium falciparum [2]) of 10 µM and an IC50 (Plasmodium falciparum [3]) of 10 µM.
For `COc1cccc(/C=C(/C#N)c2nc3ccccc3[nH]2)c1`, the IC50 [8] was 0.69 µM.
In the case of `O=[N+]([O-])c1ccc(N/N=C/c2cn(-c3ccc(Cl)cc3)nc2-c2ccccc2)c([N+](=O)[O-])c1`, the IC50 (Plasmodium falciparum [11]) is reported as 0.033 µM.
In the case of `Clc1ccccc1C(c1ccccc1)(c1ccccc1)n1ccnc1` [CLOTRIMAZOLE], the IC50 (Plasmodium falciparum [13]) is reported as 0.2 µM and the IC50 (Plasmodium falciparum [14]) is reported as 0.2 µM.
Molecule `COc1ccc(Nc2n[nH]c(N)c2C#N)cc1` has an IC50 (Plasmodium falciparum [12]) of 0.14 µM.
Work on `Clc1ccccc1CN1CC1Cn1cc(-c2ccccc2)nn1` (stereo unspecified) yielded an IC50 (Plasmodium falciparum [10]) of no more than 25 µM.
`FC(F)c1cn(-c2ccnc3cc(Cl)ccc23)nn1` gave an IC50 (Plasmodium falciparum [1]) of 1.4 µM.
`CC(C)n1c(CC(N)C(=O)O)cnc1Cc1ccccc1` (stereo unspecified) was tested, and the IC50 (Plasmodium falciparum [2]) was 10 µM and the IC50 (Plasmodium falciparum [3]) was 10 µM.
In the case of `C[C@@H]1CC[C@H]2[C@@H](C)C(=O)O[C@@H]3O[C@@]4(C)CC[C@@H]1[C@]32OO4` [ARTEMISININ], the IC50 (Plasmodium falciparum [15]) is reported as 0.006 µM.
`Cc1ccc(-n2cc(C3CC(c4ccc(N)cc4)=NN3C(N)=S)c(-c3ccccc3)n2)cc1` (stereo unspecified) was tested, and the IC50 (Plasmodium falciparum [16]) was less than 5 µM.
Work on `O=Cc1cn(-c2ccc(Cl)cc2)nc1-c1ccccc1` yielded an Activity (Plasmodium berghei [17]) of 83% and an IC50 (Plasmodium falciparum [11]) of 0.033 µM.
With `Cc1ccc(-n2cc(C=O)c(-c3ccccc3)n2)cc1` the Activity (Plasmodium berghei [17]) was 83% and the IC50 (Plasmodium falciparum [11]) was 0.033 µM.
`Cn1nnnc1NCC1CCC2(CC1)OOC1(OO2)C2CC3CC(C2)CC1C3` (stereo unspecified) gave an IC50 (Plasmodium falciparum [4]) of 0.0003 µM, an IC50 (Plasmodium falciparum [5]) of 0.0003 µM and an IC50 (Plasmodium falciparum [6]) of 0.0003 µM. It also gave an IC50 (Plasmodium falciparum [7]) of 0.0003 µM.
In the case of `N#Cc1c(Nc2ccccc2)n[nH]c1N`, the IC50 (Plasmodium falciparum [12]) is reported as 0.14 µM.
`COc1ccccc1Nc1n[nH]c(N)c1C#N` showed an IC50 (Plasmodium falciparum [12]) of 0.14 µM.
For `CCOC(=O)c1cn(-c2ccnc3cc(Cl)ccc23)nn1`, the IC50 (Plasmodium falciparum [1]) was 1.4 µM.
Work on `Cc1ccc(-c2cn(CC3CN3Cc3ccccc3)nn2)cc1` (stereo unspecified) yielded an IC50 (Plasmodium falciparum [9]) of no more than 25 µM and an IC50 (Plasmodium falciparum [10]) of no more than 25 µM.
In the case of `CC(C)(C)c1nc(CCN)c[nH]1`, the IC50 (Plasmodium falciparum [2]) is reported as 10 µM and the IC50 (Plasmodium falciparum [3]) is reported as 10 µM.
In the case of `CC(C)n1cncc1CCN`, the IC50 (Plasmodium falciparum [2]) is reported as 10 µM and the IC50 (Plasmodium falciparum [3]) is reported as 10 µM.
`NC(=S)N1N=C(c2ccc(N)cc2)CC1c1cn(-c2ccccc2)nc1-c1ccccc1` (stereo unspecified) showed an IC50 (Plasmodium falciparum [16]) of less than 5 µM.
`COc1ccc(C2=NN(C(N)=S)C(c3cn(-c4ccc(OC)cc4)nc3-c3ccccc3)C2)cc1` (stereo unspecified) was tested, and the IC50 (Plasmodium falciparum [16]) was less than 5 µM.
Molecule `CC(C)n1cncc1CC(N)C(=O)O` (stereo unspecified) has an IC50 (Plasmodium falciparum [2]) of 10 µM and an IC50 (Plasmodium falciparum [3]) of 10 µM.
For `CCNCC(Cn1cc(-c2ccccc2)nn1)NCc1ccc(Cl)cc1` (stereo unspecified), the IC50 (Plasmodium falciparum [9]) was no more than 25 µM.
For `Clc1ccc(COC(Cn2ccnc2)c2ccc(Cl)cc2Cl)c(Cl)c1` (stereo unspecified) [MICONAZOLE], the IC50 (Plasmodium falciparum [13]) was 0.2 µM and the IC50 (Plasmodium falciparum [14]) was 0.2 µM.
Molecule `COC(=O)c1c(Nc2cccc(OC)c2)n[nH]c1N` has an IC50 (Plasmodium falciparum [12]) of 0.14 µM.
In the case of `COc1ccc(/C=C(\C#N)c2nc3ccccc3[nH]2)cc1O`, the IC50 [8] is reported as 0.69 µM.
With `CCOC(=O)c1sc(N/N=C(\C)c2ccccn2)nc1C` the IC50 (Plasmodium falciparum [18]) was 0.725 µM.
`CC(=O)N1CCN(c2ccc(OCC3COC(Cn4ccnc4)(c4ccc(Cl)cc4Cl)O3)cc2)CC1` (stereo unspecified) [KETOCONAZOLE] showed an IC50 (Plasmodium falciparum [13]) of 0.2 µM and an IC50 (Plasmodium falciparum [14]) of 0.2 µM.
For `Cc1ccc(NC(=O)c2ccc3[nH]c(-c4ccc([N+](=O)[O-])o4)nc3c2)c(C)c1`, the inhibition (Hemozoin) was less than 98%, the Time (Plasmodium berghei [19]) was 20.2 days and the Activity (Plasmodium berghei [20]) was 3.05%.
Work on `Clc1ccc2c(-n3cc(-c4ccccc4)nn3)ccnc2c1` yielded an IC50 (Plasmodium falciparum [1]) of 1.4 µM.
`O=[N+]([O-])c1ccc(-c2cc(C(F)(F)F)nn2-c2ccccc2)cc1` gave an IC50 [21] of 50 µM.
Work on `NC(=S)N1N=C(c2ccc(N)cc2)CC1c1cn(-c2ccc(Cl)cc2)nc1-c1ccccc1` (stereo unspecified) yielded an IC50 (Plasmodium falciparum [16]) of less than 5 µM.
`CC(C)(C)c1nc(CC(N)C(=O)O)c[nH]1` (stereo unspecified) gave an IC50 (Plasmodium falciparum [2]) of 10 µM and an IC50 (Plasmodium falciparum [3]) of 10 µM.
`CC(C)c1nc(CCN)c[nH]1` gave an IC50 (Plasmodium falciparum [2]) of 10 µM and an IC50 (Plasmodium falciparum [3]) of 10 µM.
Work on `CC(C)(C)n1c(CC(N)C(=O)O)cnc1Cc1ccccc1` (stereo unspecified) yielded an IC50 (Plasmodium falciparum [2]) of 10 µM and an IC50 (Plasmodium falciparum [3]) of 10 µM.
Molecule `O=C(O)c1cn(-c2ccc(Cl)cc2)nc1-c1ccccc1` has an Activity (Plasmodium berghei [17]) of 83% and an IC50 (Plasmodium falciparum [11]) of 0.033 µM.
`CCNCC(Cn1cc(-c2ccccc2)nn1)NCc1ccccc1` (stereo unspecified) was tested, and the IC50 (Plasmodium falciparum [9]) was no more than 25 µM.
Work on `COC(=O)c1c(Nc2ccccc2)n[nH]c1N` yielded an IC50 (Plasmodium falciparum [12]) of 0.14 µM.
In the case of `Cc1ccc(-n2cc(C(=O)O)c(-c3ccccc3)n2)cc1`, the Activity (Plasmodium berghei [17]) is reported as 83% and the IC50 (Plasmodium falciparum [11]) is reported as 0.033 µM.
`CCOC(=O)C1=CNC(C)=C(C(=O)OCC)C1c1ccc(OCC(=O)N/N=C/c2cn(-c3ccccc3)nc2-c2ccccc2)cc1` (stereo unspecified) gave an IC50 (Plasmodium falciparum [15]) of 0.0044 µM.
`COc1ccc(-n2cc(C3CC(c4ccc(N)cc4)=NN3C(N)=S)c(-c3ccccc3)n2)cc1` (stereo unspecified) was tested, and the IC50 (Plasmodium falciparum [16]) was less than 5 µM.
Molecule `Cc1ccc(-c2nn(-c3nccc(C(F)(F)F)n3)cc2C=O)cc1` has an IC50 [21] of 30 µM.
